Results: patent publication US20240317727A1 (Duke University, priority 2018, published 2024)

Experiments:
[1] = system: Hsp27, Hsp70, Hsp90 and p23; assay: Chaperone protein levels in C4-2 cells, immunoblot; format: cell-based, human; conditions: FIG. 4A/4B
PC-3 = assay: NCI60 cell growth and viability: PC-3; format: cell-based; conditions: PC-3, Prostate Cancer, two days
A498 = assay: NCI60 cell growth and viability: A498; format: cell-based; conditions: A498, Renal Cancer, two days
COLO 205 = assay: NCI60 cell growth and viability: COLO 205; format: cell-based; conditions: COLO 205, Colon Cancer, two days
[2] = system: C4/2 scramble and HSF1-knockdown cell lines; assay: C4/2 scramble vs HSF1-knockdown cell line; format: cell-based, human
Method: GAPDH was used as a loading control. […] Hsp70 is a gene activated by HSF1 and STAT6 is a gene repressed by HSF1. […] Shown is the solvent (DMSO) or two concentrations of Compound 0017 at 2.5 and 5 μM. ns=not significant; *=P<0.05; **=P<0.01 in accordance with one embodiment of the present disclosure.

SF-268 = assay: NCI60 cell growth and viability: SF-268; format: cell-based; conditions: SF-268, CNS Cancer, two days
HCT-116 = assay: NCI60 cell growth and viability: HCT-116; format: cell-based; conditions: HCT-116, Colon Cancer, two days
SK-OV-3 = assay: NCI60 cell growth and viability: SK-OV-3; format: cell-based; conditions: SK-OV-3, Ovarian Cancer, two days
HT29 = assay: NCI60 cell growth and viability: HT29; format: cell-based; conditions: HT29, Colon Cancer, two days
K-562 = assay: NCI60 cell growth and viability: K-562; format: cell-based; conditions: K-562, Leukemia, two days
NCI-H23 = format: cell-based; conditions: NCI-H23, Non-Small Cell Lung Cancer, two days
[3] = 7-week Maximal Tolerated Dose (MTD) study in mice; format: in vivo; conditions: 25 mpk three times per week, intra-peritoneal, 7 weeks
DU-145 = assay: NCI60 cell growth and viability: DU-145; format: cell-based; conditions: DU-145, Prostate Cancer, two days
IGROV1 = assay: NCI60 cell growth and viability: IGROV1; format: cell-based; conditions: IGROV1, Ovarian Cancer, two days
SR = assay: NCI60 cell growth and viability: SR; format: cell-based; conditions: Leukemia, two days
KM12 = assay: NCI60 cell growth and viability: KM12; format: cell-based; conditions: KM12, Colon Cancer, two days
NCI/ADR-RES = assay: NCI60 cell growth and viability: NCI/ADR-RES; format: cell-based; conditions: Ovarian Cancer, two days
SK-MEL-5 = assay: NCI60 cell growth and viability: SK-MEL-5; format: cell-based; conditions: SK-MEL-5, Melanoma, two days
[4] = system: C4-2 malignant prostate cancer cells vs BPH-1 non-tumorigenic prostate cells; assay: AlamarBlue cell viability, C4-2 vs BPH-1; format: cell-based, human; conditions: 96 hours, AlamarBlue assay, FIG. 6A
Method: The cells were treated for 96 hours with the indicated concentrations of the compounds of the disclosure and cell viability was measured with the AlamarBlue assay. FIG. 6B illustrates the results of Compound 0017 used in a 7-week Maximal Tolerated Dose (MTD) study conducted in mice (3 mice identified as 118, 119 and 120). […] After sacrificing the mice on the last day of the administration, mouse liver and heart tissue was isolated, messenger RNA extracted and the transcript abundance of the HSF1 target gene, Hsp70, was evaluated by qRT-PCR relative to the internal RNA control, GAPDH. The results of the vehicle-treated versus Compound 0017-treated experiments were compared.
Based on the chemical structure of Compound 0017 and its activity, and of other HSF1-interacting chemicals identified in the screen, additional derivatives were designed, synthesized and evaluated for binding to HSF1 and preferential inhibition of metastatic prostate cancer cells (C4-2) versus benign prostate cells (BPH-1).

SN12C = assay: NCI60 cell growth and viability: SN12C; format: cell-based; conditions: Renal Cancer, two days
HS 578T = assay: NCI60 cell growth and viability: HS 578T; format: cell-based; conditions: Breast Cancer, two days
[5] = Homo sapiens, 48 h, read-out: log10 [GI50 (M)] (converted)
[6] = Homo sapiens, 48 h, read-out: log10 [LC50 (M)] (converted)

With O=C(Nc1ccc(F)cc1)Nc1ccc(Cl)c([N+](=O)[O-])c1 [Compound 0017, 1-(4-chloro-3-nitrophenyl)-3-(4-fluorophenyl)urea] the “steady-state protein level of Hsp27, Hsp70, Hsp90 and p23” value [1] was “dose-dependently reduced”, the GI50 (PC-3; [5]) was 1.58e-06 M and the CC50 (PC-3; [6]) was 4.37e-05 M. The “log10 [TGI (M)]” value (PC-3) was −4.95 log10 M, the “log10 [TGI (M)]” value (A498) was −5.24 log10 M and the GI50 (A498; [5]) was 1.82e-06 M. For the same compound, the CC50 (A498; [6]) was 2.34e-05 M, the “log10 [TGI (M)]” value (COLO 205) was −5.20 log10 M and the GI50 (COLO 205; [5]) was 2.45e-06 M. The CC50 (COLO 205; [6]) was 3.47e-05 M, the “cell viability, HSF1-expressing vs HSF1-knockdown C4/2 cells” value ([2]; 2.5 and 5 μM, FIG. 5C) was “preferentially reduces cell viability” and the “Hsp70 and STAT6 expression” value ([2]; 48-hour treatment, in C4/2 scramble cell line, but not in HSF1-knockdown cell line, FIG. 5B) was “inhibition of Hsp70 expression and de-repression of STAT6”. The GI50 (SF-268; [5]) was 4.47e-06 M, the CC50 (SF-268; [6]) was 5.75e-05 M and the “log10 [TGI (M)]” value (SF-268) was −4.76 log10 M. The “log10 [TGI (M)]” value (HCT-116) was −4.93 log10 M, the GI50 (HCT-116; [5]) was 3.09e-06 M and the CC50 (HCT-116; [6]) was 3.47e-05 M. The GI50 (SK-OV-3; [5]) was 2.63e-06 M, the CC50 (SK-OV-3; [6]) was 4.27e-05 M and the “log10 [TGI (M)]” value (SK-OV-3) was −5.12 log10 M. For the same compound, the “log10 [TGI (M)]” value (HT29) was −4.91 log10 M, the GI50 (HT29; Homo sapiens, HT-29, 48 h, read-out: log10 [GI50 (M)] (converted)) was 3.24e-06 M and the CC50 (HT29; Homo sapiens, HT-29, 48 h, read-out: log10 [LC50 (M)] (converted)) was 5.37e-05 M. For the same compound, the GI50 (K-562; Homo sapiens, K562, 48 h, read-out: log10 [GI50 (M)] (converted)) was 3.24e-06 M, the CC50 (K-562; Homo sapiens, K562, 48 h, read-out: log10 [LC50 (M)] (converted)) was ≥ 0.0001 M and the “log10 [TGI (M)]” value (K-562) was −4.00 log10 M. The GI50 (NCI-H23; [5]) was 2.63e-06 M, the CC50 (NCI-H23; [6]) was 4.57e-05 M and the “log10 [TGI (M)]” value (NCI-H23) was −4.97 log10 M. The tolerability [3] was “well tolerated”, the “log10 [TGI (M)]” value (DU-145) was −4.67 log10 M and the GI50 (DU-145; [5]) was 4.47e-06 M. The CC50 (DU-145; [6]) was ≥ 0.0001 M, the GI50 (IGROV1; Homo sapiens, IGROV-1, 48 h, read-out: log10 [GI50 (M)] (converted)) was 4.79e-06 M and the CC50 (IGROV1; Homo sapiens, IGROV-1, 48 h, read-out: log10 [LC50 (M)] (converted)) was 7.41e-05 M. The “log10 [TGI (M)]” value (IGROV1) was −4.73 log10 M, the GI50 (SR; [5]) was 3.39e-06 M and the CC50 (SR; [6]) was ≥ 0.0001 M. The “log10 [TGI (M)]” value (SR) was −4.00 log10 M, the GI50 (KM12; [5]) was 3.31e-06 M and the CC50 (KM12; [6]) was 9.12e-05 M. For the same compound, the “log10 [TGI (M)]” value (KM12) was −4.86 log10 M, the GI50 (NCI/ADR-RES; [5]) was 2.57e-06 M and the CC50 (NCI/ADR-RES; [6]) was ≥ 0.0001 M. For the same compound, the “log10 [TGI (M)]” value (NCI/ADR-RES) was −4.99 log10 M, the GI50 (SK-MEL-5; [5]) was 1.78e-06 M and the CC50 (SK-MEL-5; [6]) was 5.89e-06 M. The “log10 [TGI (M)]” value (SK-MEL-5) was −5.49 log10 M, the “viability of C4-2 compared to BPH-1” value [4] was “preferentially inhibit the viability” and the GI50 (SN12C; [5]) was 2.95e-06 M. The CC50 (SN12C; [6]) was 4.27e-05 M, the “log10 [TGI (M)]” value (SN12C) was −4.93 log10 M and the “log10 [TGI (M)]” value (HS 578T) was −4.62 log10 M. For the same compound, the GI50 (HS 578T; [5]) was 3.98e-06 M and the CC50 (HS 578T; [6]) was ≥ 0.0001 M.
